Consider 1 compound from US20100196885A1, “METHODS OF […] COMPOUNDS FOR USE IN TREATING COPD AND OTHER DISEASES” (priority 2007, published 2010).

SMILES strings stand for the structures.

In assay [1] the test system is lung elastin degradation. The assay is described as follows: D/I levels in plasma, urine and sputum of COPD patients before and after Tiotropium, by LC/MS. The format is in vivo, human. As for the experimental part:
The mass spectrometric method was used for direct measurement of D/I in urine, plasma and sputum as markers of elastin degradation in healthy controls, patients with α1-antitrypsin deficiency (AATD) and non-AATD-related COPD. Preparation of specimens of urine and sputum and measurements by mass spectrometry (LC/MS) were performed as previously described in Ma S, Lieberman S, Turino G M and Lin Y Y: The detection and quantitation of free desmosine and isodesmosine in human urine and their peptide-bound forms in sputum. PNAS 2003, 100:12941-12943, which is incorporated by reference as if recited in full herein. D and I standard (mixed 50% D and 50% I) were purchased from Elastin Products (Owensville, Mich.), and all other reagents were from Sigma (St. Louis, Mo.). MCX cation exchange cartridges (3 ml) were obtained from Waters (Milford, Mass.), and CF1 cellulose powders were purchased from Whatman (Clifton, N.J.).
Urine samples. Twenty-four hour urine samples were collected and analyzed as previously described in Ma S, et al., 2003.
Plasma samples. Plasma samples were obtained after centrifuging venous blood specimens at 2500 r.p.m. for 25 min. Samples were stored at −20 C until used. One ml of plasma and 1 ml of concentrated HCl (37%) were placed in a glass vial. After air in the sample was displaced with a stream of nitrogen, the sample was acid hydrolyzed for 24 hours in 6N HCl. After evaporation to dryness, the residue was dissolved in 2 ml of a mixed solution of n-butanol/acetic acid/6 N HCl (4:1:1, by volume). The sample solution was loaded onto a 3 ml CF1 cartridge. The CF1 cartridge was prepared by introducing 3 ml of the slurry of 5% CF1 cellulose powder in a mixture of n-butanol/acetic acid/water (4:1:1, by volume). The cartridge was washed 3 times with 3 ml of n-butanol/acetic acid/water mixture, and D and I adsorbed in the CF1 cartridge were eluted with 3 ml of water. The eluate was evaporated to dryness under vacuum at 45° C. and the residue was dissolved in 0.1 ml of HPLC mobile phase for LC/MS analysis. For analysis in plasma, samples were processed and measured in duplicate and the results averaged.
Sputum Samples. Sputum samples were processed as previously described in Ma S, et al., 2003 with the following modification: The acid hydrolyzed samples were chromatographed using a CF1 cartridge as described in the treatment of plasma samples. Each sputum sample was processed and measured in duplicate and the results averaged. Sputum was obtained from 3-hour morning collections spontaneously produced. When subjects could not voluntarily produce sputum, sputum induction was induced by 3% saline inhalation for 20 minutes as previously described in Ma S, et al., 2003.
COPD patients have elevated levels of D/I in plasma, urine and sputum, which might respond to prolonged bronchodilation. […] Other anticholinergic bronchodilators were stopped prior to TIO, and other therapies/disease treatments were unchanged for the two months of study. To these patients, 18 mcg TIO was administered each 24 hours. D/I in plasma, urine and sputum were measured by liquid chromatography and mass spectrometry (LC/MS) prior to the study and at one month and two months after the study.

Assay [2] has as its system COPD patients. The experiment in a line: Spirometry in post-TIO therapy patients. The format is in vivo, human. Conditions: most post-TIO therapy patients. The procedure:
COPD patients have elevated levels of D/I in plasma, urine and sputum, which might respond to prolonged bronchodilation. To determine if clinical effects of Tiotropium (TIO) affect tissue degradation of the lung in COPD, clinically stable patients with COPD (n=9) not on TIO prior to the study and at one month and a second month after initiating therapy were tested. Other anticholinergic bronchodilators were stopped prior to TIO, and other therapies/disease treatments were unchanged for the two months of study. To these patients, 18 mcg TIO was administered each 24 hours. D/I in plasma, urine and sputum were measured by liquid chromatography and mass spectrometry (LC/MS) prior to the study and at one month and two months after the study.
The improvement in spirometric indices were usually concordant with levels of D/I in patients.

Turning to `C[N+]1(C)[C@@H]2C[C@@H](OC(=O)C(O)(c3cccs3)c3cccs3)C[C@H]1[C@@H]1O[C@@H]12` [Tiotropium], the “Significant decreases in D/I levels in plasma (patients showing decrease)” value in assay [1] (COPD patients, 18 mcg TIO each 24 hours, one and two months, plasma, LC/MS) is 10 out of 12. The “Significant decreases in D/I levels in sputum (patients showing decrease)” value in assay [1] (COPD patients, 18 mcg TIO each 24 hours, one and two months, sputum, LC/MS) is listed as “all 12 patients”. Also, the “Significant decreases in D/I levels in urine (patients showing decrease)” value in assay [1] (COPD patients, 18 mcg TIO each 24 hours, one and two months, urine, LC/MS) is on record as 10 out of 12. Also, the “Calculated percentage decreases in D/I levels after TIO treatment, time course” value in assay [1] (COPD patients, one month vs second month of TIO) was “decreases beginning after one month with further decreases observed in the second month”. Further, in assay [1] (COPD patients, two months of TIO), the “D/I levels in plasma, urine and sputum after two months of treatment” value is “significant reductions”. Moreover, in assay [1] (all 12 COPD patients, prolonged TIO treatment), the “Lung elastin degradation, overall response from percent decreases in D/I levels” value was “some decrease in lung elastin degradation”. Also, in assay [2], the “Force Vital Capacity (FVC)” value is recorded as “significant increase”, the “Forced Expired Volume in 1 second (FEV1)” value was “significant increase”, the “Residual Volume (RV)” value is listed as “decreases” and the “ratio of FEV1/FVC” value is reported as “significant increase”.
